Results as given in PMC10584170, “Machine learning-based phenotypic imaging to characterise the targetable biology of Plasmodium falciparum male gametocytes for the development of transmission-blocking antimalarials” (PLOS Pathogens, 2023).

Assays:
[1] = tested on: P. falciparum female gametocytes; assay: P. falciparum Dual Gamete Formation Assay (PfDGFA), female readout (Pfs25-positive female gametes); type: cell-based, Plasmodium falciparum NF54; conditions: 2µM; for Average inhibition female (%) / % inhibition female (individual replicates) R1 / % inhibition female (individual replicates) R3 / % inhibition female (individual replicates) R4: 24h preincubation with gametocytes prior to induction of gametogenesis; for Average inhibition female (%): average of replicates; for % inhibition female (individual replicates) R1: replicate R1; for % inhibition female (individual replicates) R3: replicate R3; for % inhibition female (individual replicates) R4: replicate R4; for HitlevelF: 24h preincubation
Procedure, shortened: (§1)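 Male and female gamete formation were quantified by microscopy image analysis following 24 h incubation of mature NF54 gametocytes with compound and activation at 28°C with xanthurenic acid.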

[2] = tested on: P. falciparum male gametocytes; assay: P. falciparum Dual Gamete Formation Assay (PfDGFA), male readout (exflagellation); type: cell-based, Plasmodium falciparum NF54; conditions: for Average inhibition male (%) / % inhibition male (individual replicates) R1 / % inhibition male (individual replicates) R3 / % inhibition male (individual replicates) R4 / HitlevelM: 2µM; for Average inhibition male (%) / % inhibition male (individual replicates) R1 / % inhibition male (individual replicates) R3 / % inhibition male (individual replicates) R4: 24h preincubation with gametocytes prior to induction of gametogenesis; for Average inhibition male (%): average of replicates; for % inhibition male (individual replicates) R1: replicate R1; for % inhibition male (individual replicates) R3: replicate R3; for % inhibition male (individual replicates) R4: replicate R4; for HitlevelM / Activity: 24h preincubation; for Activity: PfDGFA at 2µM, hit = >50% inhibition in male or female readout in at least 3 replicates, 0 = no class assigned
Procedure, shortened: as §1

[3] = number of replicates with >50% inhibition in the female readout
[4] = number of replicates with >50% inhibition in the male readout
[5] = hits selected on >50% inhibition in the female readout across replicates
[6] = hits selected on >50% inhibition in the male readout across replicates

| SMILES | Average inhibition female (%) [1] [%] | % inhibition female (individual replicates) R1 [1] [%] | % inhibition female (individual replicates) R3 [1] [%] | % inhibition female (individual replicates) R4 [1] [%] | HitlevelF [1, 3] | Average inhibition male (%) [2] [%] | % inhibition male (individual replicates) R1 [2] [%] | % inhibition male (individual replicates) R3 [2] [%] | % inhibition male (individual replicates) R4 [2] [%] | HitlevelM [2, 4] | HitlevelF [1, 5] | HitlevelM [2, 6] | Activity [2] |
| --- | --- | --- | --- | --- | --- | --- | --- | --- | --- | --- | --- | --- | --- |
| CCc1c(CCNCCCCCCNCCc2ccc3c(c2C)OCO3)ccc2c1OCO2.Cl [TCMDC-132093] | 43.6 | 28.1 | 50.1 | 47.8 | 1 | 59.8 | 52.8 | 37.9 | 88.2 | 3 |  |  |  |
| COc1ccc(-c2nc3c(N)nc(N)nc3nc2C(C)C)cc1 [TCMDC-132109] | 17.4 | 48.8 | -20.3 | 37.3 |  | -8.8 | -5.9 | -23.4 | -14.5 |  | 0 | 0 | 0 |
| Cl.N#Cc1c(F)cc(N2CCC(NCC[C@H](N)Cc3ccc(F)c(F)c3)CC2)cc1F [TCMDC-132121] | 20.0 | 13.8 | 22.9 | 12.3 | 0 | 31.7 | 33.4 | 31.1 | 56.8 | 1 |  |  |  |
| O=C(O)C(F)(F)F.O=S(=O)(NCCN1CCCC1)c1ccc(-c2cccc(CNC3Cc4ccccc4C3)c2)s1 [TCMDC-132217] | 35.5 | 25.9 | 15.7 | 46.4 | 1 | 13.9 | 10.5 | 7.6 | 38.2 | 0 |  |  |  |
| O=C(O)C(F)(F)F.O=S(=O)(NCCN1CCCC1)c1ccc(-c2cccc(CNC3Cc4ccccc4C3)c2)cc1F [TCMDC-132221] | 29.0 | 30.1 | 27.5 | 20.7 | 0 | 11.1 | 3.1 |  | 19.5 | 0 |  |  |  |
| COc1ccc(CNCc2ccc(F)cc2)cc1-c1cccc(S(=O)(=O)NCCN2CCCC2)c1.O=C(O)C(F)(F)F [TCMDC-132223] | 23.7 | 23.5 | 4.6 | 54.2 | 1 | -1.9 | -0.6 | 2.2 | -9.8 | 0 |  |  |  |
| CN1CCC(NCc2ccc(-c3ccc(S(=O)(=O)NCc4ccccc4)cc3)cc2)CC1.O=C(O)C(F)(F)F [TCMDC-132227] | 19.1 | 9.9 | 31.6 | 17.4 | 0 | 43.4 | 32.1 |  | 43.3 | 1 |  |  |  |
| O=C(O)C(F)(F)F.O=S(=O)(NCCN1CCCC1)c1ccc(-c2ccc(CNC3Cc4ccccc4C3)cc2)cc1 [TCMDC-132229] | 26.6 | 21.5 | 7.4 | 45.3 | 0 | 10.7 | 12.4 | 8.7 | 9.5 | 0 |  |  |  |
| CN1CCC(NCc2ccc(-c3ccc(S(=O)(=O)NCc4ccccc4)s3)cc2)CC1.O=C(O)C(F)(F)F [TCMDC-132231] | 9.7 | 17.2 | 1.4 | 10.3 |  | 34.4 | 32.6 |  | 32.4 |  | 0 | 0 | 0 |
| O=C(O)C(F)(F)F.O=S(=O)(NCCN1CCCC1)c1ccc(-c2ccc(CNC3Cc4ccccc4C3)cc2)s1 [TCMDC-132234] | 29.4 | 25.4 | 5.2 | 45.9 | 0 | 17.3 | 15.3 | 1.0 | 34.9 | 0 |  |  |  |
| CN1CCC(NCc2ccc(-c3cccc(S(=O)(=O)NCc4ccccc4)c3)cc2)CC1.O=C(O)C(F)(F)F [TCMDC-132238] | 15.2 | 18.5 | -4.9 | 24.5 |  | 25.7 | 17.7 | -3.8 | 50.9 |  | 0 | 1 | 0 |
